Numbers after ± are expanded uncertainties.
Experiment: xn = mol fraction of the nth substance listed
Conditions: 100 kPa, Liquid; for viscosity: Concentric cylinders viscometry; for mass density: Vibrating tube method

O=Cc1ccccc1 [benzaldehyde] + CCC(C)O
Conditions | mass density [kg/m3] | viscosity [mPa·s]
293.15 K, x1 = 0.0813 | 824.7 ± 1 | 3.08 ± 0.12
293.15 K, x1 = 0.1623 | 842.8 ± 1 | 2.62 ± 0.11
293.15 K, x1 = 0.2401 | 860.9 ± 1 | 2.3 ± 0.09
293.15 K, x1 = 0.3517 | 886.9 ± 1 | 1.97 ± 0.08
293.15 K, x1 = 0.4404 | 908.4 ± 1 | 1.791 ± 0.072
293.15 K, x1 = 0.5612 | 938.1 ± 1 | 1.648 ± 0.067
293.15 K, x1 = 0.6519 | 961 ± 1 | 1.576 ± 0.064
293.15 K, x1 = 0.7423 | 984.4 ± 1 | 1.528 ± 0.062
293.15 K, x1 = 0.8511 | 1012.1 ± 1 | 1.506 ± 0.061
293.15 K, x1 = 0.94 | 1032.5 ± 1 | 1.511 ± 0.061
293.15 K, x1 = 1 | 1046.3 ± 1 | 1.52 ± 0.06
298.15 K, x1 = 0.0813 | 821.2 ± 1 | 2.65 ± 0.11
298.15 K, x1 = 0.1623 | 839.5 ± 1 | 2.31 ± 0.09
298.15 K, x1 = 0.2401 | 857.3 ± 1 | 2.027 ± 0.082
298.15 K, x1 = 0.3517 | 883.2 ± 1 | 1.75 ± 0.07
298.15 K, x1 = 0.4404 | 905.3 ± 1 | 1.61 ± 0.07
298.15 K, x1 = 0.5612 | 934.6 ± 1 | 1.487 ± 0.06
298.15 K, x1 = 0.6519 | 957.6 ± 1 | 1.426 ± 0.058
298.15 K, x1 = 0.7423 | 980.2 ± 1 | 1.39 ± 0.06
298.15 K, x1 = 0.8511 | 1007.3 ± 1 | 1.38 ± 0.06
298.15 K, x1 = 0.94 | 1028.6 ± 1 | 1.39 ± 0.06
298.15 K, x1 = 1 | 1041.7 ± 1 | 1.41 ± 0.06
303.15 K, x1 = 0.0813 | 816.3 ± 1 | 2.23 ± 0.09
303.15 K, x1 = 0.1623 | 834.1 ± 1 | 1.984 ± 0.08
303.15 K, x1 = 0.2401 | 852.4 ± 1 | 1.78 ± 0.07
303.15 K, x1 = 0.3517 | 878.1 ± 1 | 1.561 ± 0.063
303.15 K, x1 = 0.4404 | 899.7 ± 1 | 1.438 ± 0.058
303.15 K, x1 = 0.5612 | 929.2 ± 1 | 1.322 ± 0.054
303.15 K, x1 = 0.6519 | 952.1 ± 1 | 1.279 ± 0.052
303.15 K, x1 = 0.7423 | 975.7 ± 1 | 1.255 ± 0.051
303.15 K, x1 = 0.8511 | 1002.1 ± 1 | 1.255 ± 0.051
303.15 K, x1 = 0.94 | 1023.2 ± 1 | 1.277 ± 0.052
303.15 K, x1 = 1 | 1037.1 ± 1 | 1.31 ± 0.05
308.15 K, x1 = 0.0813 | 812.3 ± 1 | 1.897 ± 0.077
308.15 K, x1 = 0.1623 | 829.9 ± 1 | 1.7 ± 0.07
308.15 K, x1 = 0.2401 | 848.1 ± 1 | 1.55 ± 0.06
308.15 K, x1 = 0.3517 | 873.9 ± 1 | 1.383 ± 0.056
308.15 K, x1 = 0.4404 | 895.3 ± 1 | 1.284 ± 0.052
308.15 K, x1 = 0.5612 | 924.7 ± 1 | 1.194 ± 0.048
308.15 K, x1 = 0.6519 | 947.6 ± 1 | 1.156 ± 0.047
308.15 K, x1 = 0.7423 | 971.1 ± 1 | 1.139 ± 0.046
308.15 K, x1 = 0.8511 | 997 ± 1 | 1.149 ± 0.047
308.15 K, x1 = 0.94 | 1019 ± 1 | 1.182 ± 0.048
308.15 K, x1 = 1 | 1032.4 ± 1 | 1.22 ± 0.05
313.15 K, x1 = 0.0813 | 807.8 ± 1 | 1.636 ± 0.066
313.15 K, x1 = 0.1623 | 825.5 ± 1 | 1.49 ± 0.06
313.15 K, x1 = 0.2401 | 843.7 ± 1 | 1.366 ± 0.055
313.15 K, x1 = 0.3517 | 869.3 ± 1 | 1.23 ± 0.05
313.15 K, x1 = 0.4404 | 890.8 ± 1 | 1.146 ± 0.047
313.15 K, x1 = 0.5612 | 920.3 ± 1 | 1.079 ± 0.044
313.15 K, x1 = 0.6519 | 944.4 ± 1 | 1.05 ± 0.04
313.15 K, x1 = 0.7423 | 966.7 ± 1 | 1.038 ± 0.042
313.15 K, x1 = 0.8511 | 993.4 ± 1 | 1.057 ± 0.043
313.15 K, x1 = 0.94 | 1014.1 ± 1 | 1.1 ± 0.05
313.15 K, x1 = 1 | 1027.9 ± 1 | 1.15 ± 0.05
318.15 K, x1 = 0.0813 | 803 ± 1 | 1.388 ± 0.056
318.15 K, x1 = 0.1623 | 820.8 ± 1 | 1.265 ± 0.051
318.15 K, x1 = 0.2401 | 839 ± 1 | 1.172 ± 0.048
318.15 K, x1 = 0.3517 | 864.6 ± 1 | 1.068 ± 0.043
318.15 K, x1 = 0.4404 | 886.1 ± 1 | 1.01 ± 0.04
318.15 K, x1 = 0.5612 | 915.7 ± 1 | 0.966 ± 0.039
318.15 K, x1 = 0.6519 | 940 ± 1 | 0.95 ± 0.04
318.15 K, x1 = 0.7423 | 962.1 ± 1 | 0.948 ± 0.039
318.15 K, x1 = 0.8511 | 987.7 ± 1 | 0.979 ± 0.04
318.15 K, x1 = 0.94 | 1009.3 ± 1 | 1.026 ± 0.042
318.15 K, x1 = 1 | 1023.4 ± 1 | 1.09 ± 0.04
323.15 K, x1 = 0.0813 | 798.9 ± 1 | 1.215 ± 0.049
323.15 K, x1 = 0.1623 | 816.4 ± 1 | 1.128 ± 0.046
323.15 K, x1 = 0.2401 | 834.6 ± 1 | 1.056 ± 0.043
323.15 K, x1 = 0.3517 | 860 ± 1 | 0.977 ± 0.04
323.15 K, x1 = 0.4404 | 881.5 ± 1 | 0.932 ± 0.038
323.15 K, x1 = 0.5612 | 911 ± 1 | 0.895 ± 0.036
323.15 K, x1 = 0.6519 | 933.9 ± 1 | 0.882 ± 0.036
323.15 K, x1 = 0.7423 | 956 ± 1 | 0.887 ± 0.036
323.15 K, x1 = 0.8511 | 982.1 ± 1 | 0.913 ± 0.037
323.15 K, x1 = 0.94 | 1003.9 ± 1 | 0.962 ± 0.039
323.15 K, x1 = 1 | 1019.1 ± 1 | 1.03 ± 0.04

Source: the NIST ThermoML archive (doi:10.1021/acs.jced.7b00335)
